The subject of series [1] is MCF-7 mammospheres. The experiment in a line: Mammosphere formation assay, MCF-7. Type of series: cell-based. As to the method:
(§1) Since the breast cancer stem cells formed a mass of colonies in the form of floating spheres without attaching to a surface of a plate, the size and number of the masses were observed by a mammosphere formation assay to determine a cancer-stem-cell-specific effect.
(§2) Single-cell suspension was cultured at a density of 1,000 to 15,000 cells/well using a MammoCult™ Human Medium kit (Stemcell Technologies Inc Vancouver, CA), and the spherical cells were counted and observed under a microscope.
(§3) The mammosphere assay is based on the concept that when cells proliferate in three-dimensional spheroid structures, only cancer cells with stem-like characteristics are able to evade anoikis.

Series [2] has as its system MDA-MB-231 mammospheres. Briefly: Viability of MDA-MB-231 mammospheres, Alamar Blue assay (Table 1). Type of series: cell-based. The settings on record: read-out: IC50 (μM), growth of MDA-MB-231 mammospheres. In general terms: The colour change of resazurin is a common sign of viable cells or microbes.
Series [3] has as its system human hepatocellular carcinoma LM3 xenografts. The experiment in a line: Hepatocellular carcinoma LM3 xenograft model. The settings on record: all doses tested, FIG. 8. It counts as in vivo, athymic NCr nude mice. The procedure: (§4) Hepatocellular carcinoma LM3 cells (5×10^4 cells/20 μL) or breast cancer MDM-BA-231 cells (5×10^4 cells/20 μL) were implanted subcutaneously in the flanks of athymic NCr nude mice. A total of 40 male NCr nude mice (8 weeks or older weighing 20-24 g or more) were used for the tumor xenografts. The tested compounds (e.g., Ru^TEN 1, Ru^TEN 3, or salinomycin) were intraperitoneally administered at the dose of […] twice per week. Tumor volume was determined by image analysis. The mice in the control group received corresponding injection of 0.1% DMSO. For tumor-bearing NCr nude mice during the 4-weeks (or 28 days) experiment, the % body weight changes refer to: (the total weight on reading day/the total weight on day treatment started)×100. All mice were sacrificed at the end of the experiment (i.e., by the end of 28 days), and tissues including lung, liver, tumor, heart, brain, kidneys, spleen and colon were harvested, and checked for any sign of cancer metastasis.

The test system of series [4] is MDA-MB-231 secondary mammospheres. The experiment in a line: Secondary mammosphere formation (self-renewal), MDA-MB-231. Type of series: cell-based. The procedure: To this purpose, drug-treated primary MDA-MB-231 mammospheres were dissociated into single cell suspensions and incubated for 7 days in ultralow attachment drug-free conditions.
Series [5] relates to MDA-MB-231 mammospheres. The experiment in a line: Invasion / dispersion of spheroids into 3D collagen. It counts as cell-based. The settings on record: cells incubated with compound 72 hr; 28 hr; FIG. 4. The text has this:
CSCs are associated with highly invasive phenotype and it is believed that this subset of cancer cells gives rise to metastases. In order to monitor the dissemination of MCF-7 and MDA-MB-231 breast cancer spheroids, the spheroids were embedded into three-dimensional (3D) collagen scaffold using Aim Biotech 3D cell culture chips. Collagen with spheroids was introduced into the central region of the microfluidic system where it polymerized via thermal cross-linking. Cell culture media was introduced into media channels forcing spheroids to move through collagen towards the media.
Thus, whether Ru^TEN complexes and salinomycin affected the invasive properties of MDA-MB-231 spheroids was then investigated. To this purpose, MDA-MB-231 monolayer cells were incubated with compounds of interest (e.g., Ru^TEN complexes of Examplel or salinomycin) for 72 hr, then the delamination was allowed to proceed for over 28 hr. Results are depicted in FIG. 4.

Series [6] in a line: Acute toxicity, tolerated dose in Balb/c mice. It counts as in vivo. As to the method: In this example, Ru^TEN3 was subjected to in vivo studies with Balb/c mice. Various treatment regimens were explored to define the optimally tolerated dose of Ru^TEN3 in vivo. […] The body weight changes were recorded.
The nature of series [7]: Ru biodistribution in tumor-bearing mice. The settings on record: FIG. 6. Type of series: in vivo. From the text:
The Ru biodistribution in tumor-bearing mice treated with Ru^TEN3 was also investigated.

The test system of series [8] is MCF-7. The experiment in a line: cells. Type of series: cell-based. The settings on record: 72 h, MTT; read-out: IC50 (μM) MCF-7 72 h. The procedure: (§5) Cells were seeded in 96-well plates and maintained for 14-16 hours, then were treated with dimethylsulfoxide (DMSO) or test compound at various concentrations (i.e., 0.312, 1.25, 5, 20 μM) for 72 hrs. The cells were then washed with phosphate buffer saline (PBS) twice, added a medium containing 3-(4,5-dimethylthiazol-2-yl)-2,5-diphenyltetrazolium bromide (MTT) at a final concentration of 0.5 mg/mL, and incubated for 4 hr at 37° C. in a humidified incubator containing 5% CO2 in air. Cells having functional succinate dehydrogenase of mitochondria would convert MTT to formazan. Then, the medium was replaced with 100 μL of DMSO for 30 min at room temperature, and the 96-well plate was read by an ELISA reader at 550 nm to get the absorbance density values. The IC50 values of death cell lines were calculated accordingly.
(§6) The Ru^TEN complexes of Example 1 were evaluated for their anti-proliferative properties in two breast cancer cell lines, namely, MCF-7 and MDA-MB-231 cells via MTT assay. […] MCF-7 is a chemotherapy-responsive breast cancer cell line of luminal subtype with high expression of estrogen receptor (ER), whereas MDA-MB-231 is a triple negative breast cancer (TNBC) or basal-like breast cancer cell ine. TNBC is defined as highly invasive cancer that lacks expression of ER, progesterone receptor (PR) and Her-2; it has one of the worst outcomes among all subtypes of breast cancers. The aggressive nature of TNBC may be related to the presence of breast cancer stem cells within the tumor; therefore, MDA-MB-231 cells are often used as a model of mammary cancer stem cells.
(§7) The cytotoxicity of Ru^TEN complexes of Example 1 was compared to that of cisplatin or oxaliplatin, which were known to induce their anticancer effects by the mode of action different from ER stress. Three CSC-selective organic compounds, salinomycin, etoposide and abamectin, were also used for comparison. Briefly, MCF-7 and MDA-MB-231 cells were respectively treated with increasing concentrations of compounds of interest for 24 or 72 hrs and then the cell viability was measured.

For series [9], the system named is MDA-MB-231 mammospheres. The experiment in a line: Mammosphere formation assay, MDA-MB-231 primary. Type of series: cell-based. The procedure:
as §1, §2, §3

The test system of series [10] is human MD-MBA-231 breast cancer xenografts. The experiment in a line: Breast cancer MDA-MB-231 xenograft model. It counts as in vivo, athymic NCr nude mice. The settings on record: doses tested, FIG. 11. The procedure: as §4
Results are depicted in FIGS. 9 to 11.

For series [11], the system named is MDA-MB-231 mammospheres. Briefly: Cytotoxicity in MDA-MB-231 mammospheres (Table 2). Type of series: cell-based. The settings on record: 72 h; read-out: IC50 (μM) MDA-MB-231 mammospheres 72 h.
For series [12], the system named is MDA-MB-231. The experiment in a line: Anti-proliferative activity (MTT assay), MDA-MB-231. It counts as cell-based. The settings on record: MTT. The procedure: as §5, §6, §7
In general terms: Formazan colour is commonly taken as a measure of viable cells.

[13] abbreviates: primary mammospheres grown 96 hr, incubated with compound 72 hrs, >50 μm analyzed.
The mark [14] stands for this setting: from drug-treated primary mammospheres, grown in drug-free conditions for 7 days.

Like-named read-outs stand apart in the source and are kept apart here.

What is called IC50 is the concentration needed to halve the response being measured.

Regarding “[(η6-1,3,5-triisopropybenzene)RuCl(3-chloro-N-(2-quinolinylmethylene)-aniline)]Cl [Ru^TEN3]”, the “Number of MCF-7 mammospheres” value in series [1] (setting [13]) is 183 ± 32. In addition, in [1] (setting [13]), the “Size (μm) of MCF-7 mammospheres” value came to 122 ± 16 μm. Besides, in series [1] (versus control), the “decrease in number of MCF-7 mammospheres” value stood at 30%. Moreover, the IC50 was found to be 2.7 µM in [2]; 4.4 ± 0.4 µM in series [8]; 1.7 ± 0.3 µM in series [11]; 4.5 ± 0.8 µM in [12] (24 h, read-out: IC50 (μM) MDA-MB-231 24 h); 1.5 ± 0.3 µM in series [12] (72 h, read-out: IC50 (μM) MDA-MB-231 72 h). Moreover, the “body weight of LM3 tumor-bearing mice” value in series [3] was “neither Ru^TEN1 nor Ru^TEN3 had caused lost in body weight”. In addition, the “Number of MDA-MB-231 secondary mammospheres” value in series [4] (setting [14]) was determined as 81 ± 9. Moreover, the “Size (μm) of MDA-MB-231 secondary mammospheres” value in series [4] (setting [14]) was determined as 67 ± 4 μm. For the same substance, the “propensity to form secondary mammospheres” value in series [4] (single cells from drug-treated primary mammospheres, 7 days drug-free, FIG. 2) is given as “drastically reduced propensity to form secondary mammospheres”. For the same substance, in series [5], the “dispersion of cells into collagen after 28 hr / entire incubation period” value is “did not migrate from the spheroids”. Besides, the “body weight and condition” value in series [6] (5 μmol/kg intraperitoneally twice a week for 33 days) is given as “did not demonstrate any weight loss”; in [6] (10 μmol/kg intraperitoneally twice a week for 33 days), “did not demonstrate any weight loss”; in series [6] (20 μmol/kg intraperitoneally twice a week), “experienced severe pain, stopped moving, thus were euthanized”. Besides, in [7], the “Ru accumulation in tissues” value was “highest Ru accumulation was observed in spleen and liver, followed by kidney and colon”. The “Ru content in the brain” value in series [7] was “very low”. Further, in series [9] (setting [13]), the “Number of MDA-MB-231 mammospheres” value is reported as 50 ± 21. In addition, the “Size (μm) of MDA-MB-231 mammospheres” value in [9] (setting [13]) came out at 76 ± 19 μm. Also, the “decrease in number of MDA-MB-231 mammospheres” value in [9] (versus control) came to 35%. Further, the “decrease in size of MDA-MB-231 mammospheres” value in [9] (versus control) is on record as 60%. Moreover, the “body weight / toxicity in MDA-MB-231 tumor-bearing mice” value in [10] was “low toxicity”.

Values taken from patent publication US11958869B2, “Ruthenium arene Schiff-base complexes and uses thereof” (CITY UNIVERSITY OF HONG KONG, priority 2021, dated 2024).
